Biological target: T1, full-length human PKCα enzyme (Homo sapiens, UniProt P17252)
T1 construct: full-length human PKCα enzyme; purchased Upstate Biotechnology
Assay: Assessment of PKC-α Inhibitory Activity (MALDI-TOF kinase assay)
Type: biochemical
Details: full-length human PKCα 0.12 μg/ml; ATP 45 μM; neurogranin 28-43 peptide 22 μM; 30 minute incubation at 24° C.; MALDI-TOF MS readout
Protocol: Measurement of PKCα enzyme activity is performed using full-length human PKCα enzyme (Upstate Biotechnology) at a final concentration of 0.12 μg/ml in a kinase assay buffer (0.09 mg/ml bovine serum albumin (BSA), 210 μM ethylenediaminetetraacetic acid (EDTA), 360 μM CaCl2, 1 mM Tris-HCl, pH=7.5, 0.5 mM MgCl2, 0.015 mg/ml phosphatidylserine and 0.015 mg/ml diacylglycerol). The reaction is initiated by addition of adenosine triphosphate (ATP; final concentration 45 μM) and a peptide substrate consisting of amino acids 28-43 (Ala-Ala-Lys-Ile-Gln-Ala-Ser-Phe-Arg-Gly-His-Met-Ala-Arg-Lys-Lys) of neurogranin (Promega; final concentration 22 μM). After a 30 minute incubation at 24° C. the reaction is terminated by adding 5 μL of the reaction mixture into 50 μL of MALDI matrix solution (5 mg/ml α-cyano-4-hydroxycinnamic acid in 50% Acetonitrile/H2O, 0.1% TFA, 5 mM ammonium phosphate). Two microliters of the stopped reaction mixture is transferred onto a MALDI-TOF mass spectrometer target plate.
All spectra are collected on an Applied Biosystems 4700 Proteomics Analyzer MALDI-TOF MS equipped with a Nd:YAG laser (355 nm, 3 ns pulse width, 200 Hz repetition rate) in negative ion reflector mode. The system is operated with 4700 Explorer software, version 3.0. Automated acquisition parameters are adjusted to capture and average only those individual spectra within defined success criteria. Specifically, signal intensities for the substrate peptide are set to a minimum threshold of 3000 counts and a maximum intensity of 65,000 counts. This ensured that neither null spectra nor saturated spectra are averaged into the final readout. Between 1000 and 1500 laser shots are averaged for each sample. Data are collected in triplicate from 3 successive days to capture the maximum variability related to preparation of enzyme reaction, transfer of samples to MALDI target plates, data collection, and data extraction.
The isotope cluster areas for each peptide substrate and product peaks are extracted into a Microsoft Excel worksheet from the 10×10 array of spectral data simultaneously using the automated analysis function provided within the 4700 Explore software. The isotope cluster area is defined by the software algorithm based on the molecular weight and the general elemental composition of the peptides. The percent conversion (% C) of substrate to product is calculated as the cluster area of the product (P) divided by the sum of the cluster areas of the substrate (S) and the product multiplied by 100 as represented by the following equation: […]
For dose-dependent inhibition studies, the inhibition is plotted as a % Maximal Activity (% MA). Equation one is a measure of the ratio of product to substrate then solving for the % C. However, to measure inhibition of the enzyme activity, one must measure the degree to which that activity (% C) is curtailed. Thus the dose-dependant inhibition data is plotted as % MA where the maximal activity is the % C measured in control reactions with no inhibitor as represented by the following equation: […]

Substance: N^2-(3-Nitro-biphenyl-3-yl)-N^4-(3-morpholin-4-yl-propyl)-pyrimidine-2,4-diamine
- IC50: 182 nM

From patent US8354407B2 (Boehringer Ingelheim International GmbH, priority 2006, dated 2013)
